ChEMBL document CHEMBL1128859, “Cmi-206: A potent dual platelet activating factor antagonist and 5-lipoxygenase inhibitor” (Bioorg Med Chem Lett, 1995)

How the values were obtained:
[1] = target: T1, Polyunsaturated fatty acid 5-lipoxygenase (Rattus norvegicus, UniProt P12527); experiment: In vitro inhibition of 5-lipoxygenase in RBL-2H3 (Rat basophilic leukemia) cells.; type: functional, cell-based
T1 sequence (P12527 whole entry): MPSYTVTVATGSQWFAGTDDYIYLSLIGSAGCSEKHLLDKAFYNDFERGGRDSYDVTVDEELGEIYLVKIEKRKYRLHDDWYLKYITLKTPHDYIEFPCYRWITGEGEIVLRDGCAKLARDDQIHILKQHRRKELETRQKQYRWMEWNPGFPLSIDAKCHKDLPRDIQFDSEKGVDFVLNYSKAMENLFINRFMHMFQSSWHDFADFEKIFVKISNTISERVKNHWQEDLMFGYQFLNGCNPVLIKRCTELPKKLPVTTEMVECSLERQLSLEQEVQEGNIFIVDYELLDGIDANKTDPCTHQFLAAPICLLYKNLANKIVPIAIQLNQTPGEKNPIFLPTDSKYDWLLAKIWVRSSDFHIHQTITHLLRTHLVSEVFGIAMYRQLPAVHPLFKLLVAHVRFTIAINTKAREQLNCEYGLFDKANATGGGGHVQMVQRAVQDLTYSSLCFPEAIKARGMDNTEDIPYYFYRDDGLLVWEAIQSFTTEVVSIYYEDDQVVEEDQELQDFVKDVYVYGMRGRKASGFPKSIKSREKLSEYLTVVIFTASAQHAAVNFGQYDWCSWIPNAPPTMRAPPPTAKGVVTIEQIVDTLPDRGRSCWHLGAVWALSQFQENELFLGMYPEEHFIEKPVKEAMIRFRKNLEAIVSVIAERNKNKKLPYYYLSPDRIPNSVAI

[2] = target: Platelet-activating factor receptor (Homo sapiens, UniProt P25105); experiment: In vitro affinity for human PAF receptor on platelet membranes using [3H]PAF displacement.
Sequence of Platelet-activating factor receptor (P25105 whole entry): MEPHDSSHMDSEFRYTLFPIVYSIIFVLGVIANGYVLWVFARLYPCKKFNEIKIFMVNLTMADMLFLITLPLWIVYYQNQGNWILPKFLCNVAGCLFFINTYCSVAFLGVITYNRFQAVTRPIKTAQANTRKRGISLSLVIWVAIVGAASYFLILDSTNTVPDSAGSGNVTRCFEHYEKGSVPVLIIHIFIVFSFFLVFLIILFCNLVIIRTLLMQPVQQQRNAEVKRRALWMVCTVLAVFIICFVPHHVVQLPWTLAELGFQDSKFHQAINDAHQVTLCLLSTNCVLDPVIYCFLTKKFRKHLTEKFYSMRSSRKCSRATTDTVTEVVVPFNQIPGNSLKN

[3] = organism: Homo sapiens; experiment: Inhibition of human whole blood (HWB) LTB4 production in A-23,187-activated human whole blood by the enzyme immunoassay at a dose of 3 uM; type: functional
[4] = tested on: Mus musculus; experiment: Arachidonic acid (AA)-induced ear edema in mice was determined by topically applying AA to ears of mice; type: functional
[5] = organism: Homo sapiens; experiment: Inhibition of human whole blood (HWB) LTB4 production in A-23,187-activated human whole blood by the enzyme immunoassay; type: functional
[6] = tested on: Rattus norvegicus; experiment: Concentration of LTB4 was determined by enzyme immunoassay (Ex vivo) rat whole blood after intravenous administration of 5 mg/Kg; type: functional
[7] = tested on: Mus musculus; experiment: Ability to antagonize PAF-induced hemoconcentration PAF HTc in mice at a dose of 3 mg/kg; type: functional

CCCOc1cc([C@H]2CC[C@H](c3cc(OC)c(OC)c(OC)c3)O2)cc(N(CC)C(=O)N(O)CC)c1OCCC
IC50 [1]: 1.34 µM
IC50 [2]: 0.017 µM

CCCNC(=O)N(O)c1cc([C@H]2CC[C@H](c3cc(OC)c(OC)c(OC)c3)O2)cc(OCCC)c1OCCC
IC50 [1]: 3 µM
IC50 [2]: 0.091 µM

CCCOc1c(NC(=O)NO)cc(C2CCC(c3cc(OC)c(OC)c(OC)c3)O2)cc1OC (trans isomer)
IC50 [2]: 0.03 µM

CCCOc1c(NC(=O)N(O)C(C)(C)C)cc(C2CCC(c3cc(OC)c(OC)c(OC)c3)O2)cc1OC (trans isomer)
IC50 [1]: 2.9 µM
IC50 [2]: 0.026 µM

CCCOc1cc([C@H]2CC[C@H](c3cc(OC)c(OC)c(OC)c3)O2)cc(N(O)C(=O)NCC)c1OCCC
IC50 [2]: 0.059 µM

CCCCN(O)C(=O)Nc1cc(C2CCC(c3cc(OC)c(OC)c(OC)c3)O2)cc(OC)c1OCCC (stereo in doubt)
inhibition at 3 µM [3]: 64%
Inhibition [4]: 60%
IC50 [5]: 1.68 µM
IC50 [1]: 0.42 µM
IC50 [2]: 0.033 µM
inhibition in vivo at 5 mg/kg [6]: 67%
inhibition in vivo at 3 mg/kg [7]: 31%

CCCOc1cc([C@H]2CC[C@H](c3cc(OC)c(OC)c(OC)c3)O2)cc(N(CC)C(=O)N(O)CCC)c1OCCC
IC50 [2]: 0.056 µM

CCCOc1c(NC(=O)N(O)CC)cc(C2CCC(c3cc(OC)c(OC)c(OC)c3)O2)cc1OC (stereo in doubt)
IC50 [1]: 3 µM
IC50 [2]: 0.383 µM

CCCOc1c(NC(=O)N(O)CC)cc(C2CCC(c3cc(OC)c(OC)c(OC)c3)O2)cc1OC (trans isomer)
inhibition at 3 µM [3]: 23%
IC50 [1]: 0.15 µM
IC50 [2]: 0.008 µM
inhibition in vivo at 3 mg/kg [7]: 58%

CCCOc1c(NC(=O)N(O)C(C)CC)cc(C2CCC(c3cc(OC)c(OC)c(OC)c3)O2)cc1OC (cis isomer)
IC50 [1]: 0.45 µM
IC50 [2]: 1.61 µM

CCCOc1c(NC(=O)N(O)CCC)cc(C2CCC(c3cc(OC)c(OC)c(OC)c3)O2)cc1OC (trans isomer)
IC50 ([1]; rbl-2h3): 10 µM

CCCOc1c(NC(=O)N(O)C(C)C)cc(C2CCC(c3cc(OC)c(OC)c(OC)c3)O2)cc1OC (stereo in doubt)
IC50 [1]: 2.83 µM
IC50 [2]: 0.858 µM

CCCOc1cc([C@H]2CC[C@H](c3cc(OC)c(OC)c(OC)c3)O2)cc(N(CC)C(=O)N(C)O)c1OCCC
IC50 [1]: 3.07 µM
IC50 [2]: 0.068 µM

CCCOc1c(NC(=O)N(O)C(C)CC)cc(C2CCC(c3cc(OC)c(OC)c(OC)c3)O2)cc1OC (trans isomer)
inhibition at 3 µM [3]: 57%
IC50 [1]: 0.6 µM
IC50 [2]: 0.025 µM

CCCOc1c(NC(=O)NO)cc(C2CCC(c3cc(OC)c(OC)c(OC)c3)O2)cc1OC (stereo in doubt)
IC50 [2]: 0.3 µM

CCCOc1c(NC(=O)N(O)C2CCCCC2)cc(C2CCC(c3cc(OC)c(OC)c(OC)c3)O2)cc1OC (cis isomer)
IC50 [1]: 2.54 µM
IC50 [2]: 1 µM

CCCOc1c(NC(=O)N(C)O)cc(C2CCC(c3cc(OC)c(OC)c(OC)c3)O2)cc1OC (trans isomer)
IC50 [1]: 0.63 µM
IC50 [2]: 0.017 µM

CCCOc1c(NC(=O)N(O)C2CCCCC2)cc(C2CCC(c3cc(OC)c(OC)c(OC)c3)O2)cc1OC (trans isomer)
IC50 [2]: 0.278 µM

CCCOc1c(NC(=O)N(O)Cc2ccccc2)cc(C2CCC(c3cc(OC)c(OC)c(OC)c3)O2)cc1OC (trans isomer)
IC50 [1]: 2.24 µM
IC50 [2]: 0.423 µM

CC(c1cc2ccccc2s1)N(O)C(N)=O (stereo not given) [ZILEUTON]
inhibition at 3 µM [3]: 75%

CCCOc1c(NC(=O)N(O)Cc2ccccc2)cc(C2CCC(c3cc(OC)c(OC)c(OC)c3)O2)cc1OC (cis isomer)
IC50 [1]: 8 µM
IC50 [2]: 0.585 µM

CCCCN(O)C(=O)Nc1cc(C2CCC(c3cc(OC)c(OC)c(OC)c3)O2)cc(OC)c1OCCC (cis isomer)
IC50 [1]: 0.5 µM
IC50 [2]: 1.31 µM

CCCOc1c(NC(=O)N(C)O)cc(C2CCC(c3cc(OC)c(OC)c(OC)c3)O2)cc1OC (cis isomer)
IC50 [2]: 0.514 µM

CCCOc1c(NC(=O)N(O)C(C)C)cc(C2CCC(c3cc(OC)c(OC)c(OC)c3)O2)cc1OC (trans isomer)
IC50 [1]: 3 µM
IC50 [2]: 0.058 µM

CCCOc1c(NC(=O)N(O)CCC)cc(C2CCC(c3cc(OC)c(OC)c(OC)c3)O2)cc1OC (stereo in doubt)
IC50 [1]: 10 µM

CCCOc1c(NC(=O)N(O)C(C)(C)C)cc(C2CCC(c3cc(OC)c(OC)c(OC)c3)O2)cc1OC (cis isomer)
IC50 [2]: 0.456 µM
